The test deals with human neutrophils. The test is described as follows: EZ-TAXIScan chemotaxis assay, human neutrophils. Format: cell-based. The arrangement: key to Chemotactic response: moderate (++) response; stronger chemotactic response (+++). To be noted: for Chemotactic response / Chemotaxis Index (CI) / Speed: Table 2, peptide 20 ng/mL, 1-3 experiments; for Chemotaxis Index (CI), Control / Speed, Control: no cyclosporine H. As to the method:
Heparinized venous blood was centrifuged over a Ficoll-Paque PLUS gradient (d = 1.077 g/ml, GE Healthcare, Boston, MA). The sedimented granulocyte/erythrocyte fraction was collected, and erythrocytes were lysed with cold lysis buffer (155 mM NH4Cl, 10 mM KHCO3, 0.1 mM EDTA). Cells were resuspended in HBSS without Ca^2+/Mg^2+ (Thermo Scientific, Tewksbury, MA), and viability and purity were assessed as described above. Viability of neutrophils was >95%, purity was 98–99%.
Neutrophils were counted and applied in the EZ-TAXIScan chemotaxis assay. […] The EZ-TAXIScan chamber (Effector Cell Institute, Tokyo) was assembled as described by the manufacturer. Cell migration was recorded every 15 seconds for 30 minutes at 37°C in a humidified environmental chamber. Coverslips and chips used in the chamber were coated with 1% BSA at room temperature for 1 hour. All glass coverslips were ultrasonicated and washed before use. Cell migration analysis was conducted with MATLAB software. Cell tracks were subsequently used to compute the chemotaxis index (CI) and speed for each tracked cell at each time step, as well as the average CI and average speed for each experiment.

Where [1] appears, read: Table 1, neutrophils pretreated with cyclosporine H (FPR1 inhibitor), 5 experiments.
Where [2] appears, read: Table 3, in the presence of cyclosporine H (FPR1 inhibitor), 2-3 experiments.
Setting [3] is: human neutrophils pretreated with cyclosporine H.

On to “PQQPISQQQQQQQQQQQQQQ [alpha-gliadin synthetic library peptide]”, for which the Chemotactic response entry was “++”, the “Chemotaxis Index (CI)” value amounted to 0.29 and the Speed was 7.62 μm/minute.

As to `CCCCC/C=C\C[C@@H](O)/C=C/C=C/C=C\[C@@H](O)CCCC(=O)O` [LTB4, leukotriene B4, reference compound], under setting [1], the “Chemotaxis Index (CI), Cyclosporine H” value amounted to 0.49 ± 0.01 and the “Speed, Cyclosporine H” value is reported as 9.23 ± 0.07 μm/minute. For the setting “Table 1, 5 experiments”, the “Chemotaxis Index (CI), Control” value was 0.51 ± 0.01 and the “Speed, Control” value stood at 9.68 ± 0.30 μm/minute.

For the compound “SSQVSFQQPLQQYPLGQGSF [alpha-gliadin synthetic library peptide]”, the Chemotactic response entry is recorded as “++”, the “Chemotaxis Index (CI)” value stood at 0.19 and the Speed amounted to 7.65 μm/minute.

For the compound “PFPQPQLPYLQPQPFRPQQP [alpha-gliadin synthetic library peptide]”, the Chemotactic response entry is reported as “++”, the “Chemotaxis Index (CI)” value was found to be 0.21 ± 0.01 and the Speed was 9.94 ± 0.09 μm/minute.

Turning to “QIPEQSQCQAIHNVVHAIIL [alpha-gliadin synthetic library peptide]”, the Chemotactic response entry is listed as “+++”, the “Chemotaxis Index (CI)” value is reported as 0.33 and the Speed came out at 8.64 μm/minute.

Consider “QVLQQSTYQLLQELCCQHLW [alpha-gliadin synthetic library peptide]”, for which the Chemotactic response result is “++”, the “Chemotaxis Index (CI)” value is 0.33 and the Speed came to 7.49 μm/minute.

“QQHNIAHGRSQVLQQSTYQL [alpha-gliadin synthetic library peptide]”: the Chemotactic response result was “+++”, the “Chemotaxis Index (CI)” value turned out to be 0.28 ± 0.01 and the Speed was 10.17 ± 1.45 μm/minute. Besides, under setting [2], the “Chemotaxis Index (CI), Cyclosporine H” value came out at 0.05 ± 0.02 and the “Speed, Cyclosporine H” value was found to be 0.48 ± 0.19 μm/minute. Where the note is “Table 3, 2-3 experiments”, the “Chemotaxis Index (CI), Control” value came to 0.27 ± 0.02 and the “Speed, Control” value is listed as 6.65 ± 0.33 μm/minute.

In the case of “LQELCCQHLWQIPEQSQCQA [alpha-gliadin synthetic library peptide]”, the Chemotactic response entry is listed as “++”, the “Chemotaxis Index (CI)” value came out at 0.18 and the Speed worked out at 8.85 μm/minute.

As to “PQNPSQQHPQEQVPLVQQQQ [alpha-gliadin synthetic library peptide]”, the Chemotactic response result is listed as “++”, the “Chemotaxis Index (CI)” value is on record as 0.23 and the Speed is listed as 6.73 μm/minute.

Consider cyclosporine H [reference compound], for which, under setting [3], the “effect on PT-gliadin-induced chemotaxis” value is on record as “completely abrogated”, the “effect on fMLP-mediated neutrophil chemotaxis” value is on record as “abolished” and the “effect on leukotriene B4 (LTB4)-mediated chemotaxis” value is listed as “remained unaffected”.

As for “QQYPLGQGSFRPSQQNPLAQ [alpha-gliadin synthetic library peptide]”, the Chemotactic response result is “++”, the “Chemotaxis Index (CI)” value is given as 0.21 and the Speed is 8.08 μm/minute.

Regarding “GSVQPQQLPQFEEIRNLALQ [alpha-gliadin synthetic library peptide]”, the Chemotactic response entry is on record as “+++”, the “Chemotaxis Index (CI)” value is listed as 0.34 ± 0.01 and the Speed is reported as 8.10 ± 0.18 μm/minute. Also, under setting [2], the “Chemotaxis Index (CI), Cyclosporine H” value is reported as 0.02 ± 0.01 and the “Speed, Cyclosporine H” value was found to be 0.30 ± 0.06 μm/minute. Under “Table 3, 2-3 experiments”, the “Chemotaxis Index (CI), Control” value is on record as 0.33 ± 0.07 and the “Speed, Control” value was 7.90 ± 0.87 μm/minute.

Turning to “PPYCTIVPFGIFGTNYR [alpha-gliadin synthetic library peptide]”, the Chemotactic response result is “++”, the “Chemotaxis Index (CI)” value came out at 0.29 ± 0.01 and the Speed stood at 8.55 ± 0.11 μm/minute.

As to “MVRVPVPQLQPQNPSQQHPQ [alpha-gliadin synthetic library peptide]”, the Chemotactic response result is reported as “++”, the “Chemotaxis Index (CI)” value is 0.30 ± 0.01 and the Speed came out at 6.68 ± 1.92 μm/minute. Moreover, under setting [2], the “Chemotaxis Index (CI), Cyclosporine H” value is reported as 0.03 ± 0.01 and the “Speed, Cyclosporine H” value came to 0.45 ± 0.11 μm/minute. Under “Table 3, 2-3 experiments”, the “Chemotaxis Index (CI), Control” value turned out to be 0.28 ± 0.03 and the “Speed, Control” value came to 7.50 ± 1.95 μm/minute.

(Values after paper PMC4574934, “Gliadin Induces Neutrophil Migration via Engagement of the Formyl Peptide Receptor, FPR1” (PLoS ONE, 2015).)
